Experimental data taken from patent US20210388007A1, “COMPOUND AND PREPARATION METHOD AND APPLICATION THEREOF” (WUHAN UNIVERSITY, priority 2020, published 2021).

Assays:
[1] = storage stability (sealed storage, degradation rate); assay type: physicochemical
Procedure: (§1) The storage stability, light stability and solubility in common solvents of the tri(di)fluoroethanolation reagents 1a, 2a, A2, A3 and A4 prepared in Embodiment 1, Embodiment 23, Embodiment 30, Embodiment 31 and Embodiment 32 of the present disclosure were tested, and the results are shown in Table 1 below.

[2] = solubility in common solvents of the tri(di)fluoroethanolation reagents; assay type: physicochemical; conditions: for solubility acetonitrile: solvent acetonitrile; for solubility dichloromethane (DCM): solvent dichloromethane (DCM); for solubility ethyl acetate (EA): solvent ethyl acetate (EA); for solubility n-hexane: solvent n-hexane
Procedure: as §1

[3] = light stability (continuous white light irradiation, degradation rate); assay type: physicochemical
Procedure: as §1

| SMILES | storage stability, sealed storage at 5° C. for two weeks (degradation rate, mol %) [1] | storage stability, sealed storage at 30° C. for two weeks (degradation rate, mol %) [1] | solubility acetonitrile [2] | solubility dichloromethane (DCM) [2] | solubility ethyl acetate (EA) [2] | solubility n-hexane [2] | light stability, continuous white light irradiation at 25° C. for 2 days (degradation rate, mol %) [3] | storage stability, sealed storage at 5° C. for two weeks (degradation rate, mol %) ([1]; listed as A2) | storage stability, sealed storage at 30° C. for two weeks (degradation rate, mol %) ([1]; listed as A2) | melting point |
| --- | --- | --- | --- | --- | --- | --- | --- | --- | --- | --- |
| C[Si](C)(c1ccccc1)C(O)C(F)(F)F (racemic) [a1] | <1% mol % | 5% mol % | dissolved | dissolved | dissolved | dissolved | <1% mol % |  |  |  |
| C[Si](c1ccccc1)(c1ccccc1)C(O)C(F)(F)F (racemic) [Embodiment A4] | <1% mol % | 3.2% mol % | dissolved | dissolved | dissolved | well | <1% mol % |  |  |  |
| C[Si](C)(c1ccccc1)C(O)C(F)F (racemic) [a2] | <1% mol % | 4% mol % | dissolved | dissolved | dissolved | dissolved | <1% mol % | 2% mol % | 14% mol % |  |
| OC(C(F)(F)F)[Si](c1ccccc1)(c1ccccc1)c1ccccc1 (stereo not shown) [Embodiment A3] | <1% mol % | <1% mol % | dissolved | dissolved | dissolved | slightly | <1% mol % |  |  |  |
| CC1(CC(O)C(F)(F)F)C(=O)N(c2ccccc2)c2ccccc21 (stereo not shown) [Embodiment 21, 3-methyl-1-phenyl-3-(3,3,3-trifluoro-2-hydroxypropyl)indol-2-one] |  |  |  |  |  |  |  |  |  | 116 to 118 °C |
